# Measured values as given in patent publication US20190374525A1, “TREATMENT OF DIABETES AND ASSOCIATED METABOLIC CONDITIONS WITH EPIGENETIC MODULATORS” (Temple Otorongo LLC, priority 2017, published 2019).
# Key:
# Type in all cases: in vivo
# [1] = tested on: leptin receptor deficient transgenic mouse model (db/db); assay: blood glucose levels in mouse model of severe type 2 diabetes and obesity; settings: for blood glucose levels: mouse model of severe type 2 diabetes and obesity, FIG. 5 (Formula (I), 11 days), FIG. 7 (Formula (II), 19 days or 29-30 days)
# Protocol: (§1) Fed blood glucose levels were measured over a period of 28 days. Fasting glucose levels were measured on days 19, 29, and 30. Glucose clearance was measured using the glucose tolerance test on days 29 and 30. Body weight was also measured as compounds may regulate the expression of genes that are involved in obesity.
# [2] = tested on: leptin receptor deficient transgenic mouse model (db/db); assay: liver enzymes (ALT and AST) in blood serum, mouse model of Type 2 diabetes and severe obesity; settings: after 29-30 days; FIG. 11
# [3] = body weight in mouse model of severe type 2 diabetes and obesity; settings: after 9 days of treatment; FIG. 8
# Protocol: as §1
SMILES,"fed and fasting glucose levels ([1]; after 11 days of treatment, FIG. 5)",blood glucose levels [1],lowering of enzymes (ALT and AST) associated with liver disease measured in blood serum [2],body weight [3]
"O=C(O)c1ccnc(C(=O)O)c1 [Formula (I), 2,4-pyridinedicarboxylic acid]",decrease in fed and fasting glucose levels,significantly decrease blood glucose levels,68%,–
O=C(O)CCNc1cc(N2CCc3ccccc3CC2)nc(-c2ccccn2)n1 [Formula (II)],–,significantly decrease blood glucose levels,–,–
CN(C)c1ccc(C(=O)NCCCCCC(=O)NO)cc1 [Formula (III)],–,–,–,significantly decrease body weight
